# Test results from publication PMC11765394, “Structure-Based Discovery of MolPort-137: A Novel Autotaxin Inhibitor That Improves Paclitaxel Efficacy” (International Journal of Molecular Sciences, 2025).
# Target: T1, autotaxin (ATX) (Homo sapiens, UniProt Q13822)
# T1 construct: gene ENPP2
# Experiment: FS-3 fluorogenic substrate hydrolysis assay with […] purified recombinant human ATX
# Assay type: biochemical
row,IC50 [nM],Compound
1,200,"CCCCCCCCCCCCCCCc1ccc(CP(=O)(O)O)cc1 [BMP-22, reference compound]"
2,1600 ± 200,MolPort-137

# Target: T1, autotaxin (ATX)
# Experiment: biochemical
# Parameters: FS-3 fluorogenic substrate hydrolysis by purified recombinant human ATX, fluorescence read-out
# Procedure: The purification of recombinant human ATX was carried out as reported earlier. The potential inhibitory effect of the hits identified through molecular modeling was assessed using the FS-3 assay, which measures fluorescence when the non-natural lipid-like FRET-established substance FS-3 (Echelon Biosciences, Salt Lake City, UT, USA) is hydrolyzed by ATX. A 60 μL volume of reaction mixture containing ATX assay buffer (pH 8.0, containing 10 μM BSA, 50 mM TRIS, […], 5 mM KCl, 1 mM CaCl2, and 1 mM MgCl2) was added to each well of a black-wall 96-well plate. Recombinant ATX was then added to achieve a final concentration of 4 nM. The compounds were dissolved in DMSO and transferred to a 96-well plate in technical triplicate. Single-dose testing was performed with a final well concentration of 10 μM, while dose–response assays involved eight different concentrations of the test compound. FS-3 was then added to achieve a concluding well strength of 1 μM, and fluorescence was quantified on a CLARIOstar Plus plate reader (BMG Labtech, Ortenberg, Baden-Württemberg, Germany) for two hours, with scans every two minutes at excitation/emission wavelengths of 485/528 nm. Percent activity was calculated relative to DMSO-treated control wells. […] Inhibition tests were conducted to target ATX-facilitated hydrolysis of FS3 (LPC homolog) using 15 compounds at 10 μM. Compounds inhibiting more than 50% of FS-3 hydrolysis were classified as hits. […] BMP-22, a known ATX inhibitor, served as a control with an IC50 of 0.2 ± 0.0 μM, consistent with reported values.
row,Compound,inhibition at 10 µM [%]
1,COc1ccc(NC(=O)CSc2nc(=O)c3c(C)cc(C)nc3n2-c2cccc(C)c2C)cc1 [MolPort-072],42
2,Cc1ccc(-c2noc(-c3nnn(Cc4nc(-c5ccccc5)oc4C)c3C)n2)cc1C [MolPort-122],15.5
3,Cc1cc(F)ccc1NC(=O)c1cnn2c(=O)c3c(n(C)c12)CCN(Cc1ccccc1)C3 [MolPort-137],75.9
4,Cc1cccc(-n2c(SCC(=O)Nc3ccc(C)c(C)c3)nc3[nH]nc(C)c3c2=N)c1 [MolPort-144],-13.5
5,Cc1cccc(NC(=O)Cn2nc3c(Oc4ccccc4C)nc4ccccc4n3c2=O)c1 [MolPort-161],5.16
6,COc1ccccc1-c1nc(Cn2nnc(-c3nc(-c4ccc(C)cc4)no3)c2C)c(C)o1 [MolPort-185],33.7
7,Cc1ccc(NC(=O)Cn2nc3c(Oc4cccc(C)c4C)nc4ccccc4n3c2=O)cc1C [MolPort-240],2.06
8,Cc1cc(NC(=O)Cn2nc3c(Oc4ccccc4C)nc4ccccc4n3c2=O)ccc1Br [MolPort-311],5.23
9,Cc1cc(-n2c(SCC(=O)Nc3ccc(F)c(F)c3)nc3n[nH]c(C)c3c2=N)ccc1Cl [MolPort-323],5

# Now from value to compound:
row,inhibition at 10 µM [%],Compound
1,27.2,Cc1ccccc1NC(=O)c1nnn(Cc2nc(-c3cccc(Cl)c3)oc2C)c1C [MolPort-495]
2,26.4,Cc1cc(C)cc(NC(=O)Cn2c(=O)nc(N3CCCC(C)C3)c3ccccc32)c1 (centres unmarked) [MolPort-616]
3,7.1,CCc1cccc(NC(=O)Cn2nc3c(Oc4ccccc4C)nc4ccccc4n3c2=O)c1 [MolPort-674]
4,10.8,COc1cc(C=C2N=C(c3ccc(F)cc3)OC2=O)cc(I)c1OCc1cccc(C)c1 [MolPort-839]
5,29.7,Cc1cc(C)cc(-n2c(CN3CCN(C(=O)Nc4ccccc4F)CC3)nc3cccnc32)c1 [MolPort-904]
6,7.61,Cc1cccc(CNC(=O)c2c(O)c3cccnc3n(-c3cccc(F)c3)c2=O)c1 [MolPort-914]
